Here are results for two compounds from article PMC10381309 (Journal of Fungi, 2023).

Converted amounts (≈) assume the structure as drawn.

One data set has as its system VERO cells (ATCC CCL-81). The data set is described as follows: Cytotoxicity of hit drugs, MTT, 24 h. The note with it: African green monkey. It is filed as cell-based. The method, then: VERO cells (ATCC® CCL-81, a kidney tissue derived from a normal adult African green monkey) were cultured in 199 medium with Earle’s salts supplemented with 100 U/mL of penicillin–100 µg/mL of streptomycin (Cultilab LTDA, São Paulo, Brazil) and 10% fetal bovine serum (FBS, Cultilab LTDA, Brazil) in an incubator at 37 °C with 5% CO2. Cells were subcultured in 25 or 75 cm^2 culture flasks once a week and the culture medium was also changed once a week. The cells used in the experiments were from passages 10 to 29 [42]. Cytotoxicity assays to assess cell viability were performed in 96-well plates with 5 × 10^4 cells/well that were exposed to hit drug solutions for 24 h at 37 °C in an incubator with 5% CO2. […]. A solution of 10% Tween 80 solution was used as the positive cellular death control. Wells with VERO cells receiving only the culture medium with or without 1% DMSO were also included as positive cellular growth controls.
The 3-(4,5-dimethylthiazol-2-yl)-2,5-diphenyltetrazolium bromide (MTT, Sigma-Aldrich®, USA) reagent dissolved in PBS, pH 7.4, was used to check cell viability. Results were read at 492 nm on a Thermo Scientific® Multiskan microplate spectrophotometer reader and expressed as percent cell viability in the culture medium after addition of a 10% Tween 80 solution.

For data set [1], the system named is Fonsecaea monophora (CFP 00911). Kind of data set: MIC determination (EUCAST, minor modifications). In kind it is cell-based. Particulars: F. monophora. The method, then:
(§1) Minimum inhibitory concentrations (MICs) were determined using the method proposed by the European Committee on Antimicrobial Susceptibility Testing (EUCAST), with minor modifications. Hit drugs were serially diluted (80 μM to 0.15625 μM) in RPMI 1640 (twice concentrated, pH 7; supplemented with 2% glucose) buffered with MOPS in 96-well plates. The inoculums of all strains were prepared following the EUCAST protocol. Plates were incubated at 35 °C for 72–96 h. The MIC of the NCC substances was determined as the lowest concentration capable of inhibiting 100% of fungal growth when compared to the growth control well. MIC values were determined in duplicate.

Data set [2] deals with Rhinocladiela similis (CFP 00790). Kind of data set: MIC determination (EUCAST, minor modifications). In kind it is cell-based. The note with it: R. similis. The protocol:
as §1

For data set [3], the system named is Fonsecaea pedrosoi (CFP 00791). Kind of data set: MIC determination (EUCAST, minor modifications). It is filed as cell-based. Particulars: F. pedrosoi. The method, then: as §1
The test system of data set [4] is Fonsecaea nubica (CFP 00912). The data set is described as follows: MIC determination (EUCAST, minor modifications). In kind it is cell-based. Particulars: F. nubica. The method, then: as §1
Data set [5] concerns Exophiala heteromorpha (ATCC 28180). The data set is described as follows: MIC determination (EUCAST, minor modifications). In kind it is cell-based. The note with it: E. heteromorpha. The method, then: as §1
Data set [6] deals with Phialophora verrucosa (CFP 00937). Kind of data set: MIC determination (EUCAST, minor modifications). In kind it is cell-based. The note with it: P. verrucosa. The protocol: as §1
Data set [7] concerns Exophiala dermatitidis (ATCC 28869). Kind of data set: MIC determination (EUCAST, minor modifications). In kind it is cell-based. Particulars: E. dermatitidis. The method, then:
as §1

The test system of data set [8] is Cladophialophora carrionii (CFP 00910). The data set is described as follows: MIC determination (EUCAST, minor modifications). In kind it is cell-based. The note with it: C. carrionii. The method, then: as §1
Data set [9] has the same test system. The data set is described as follows: Minimum fungicidal concentration determination. It is filed as cell-based. Particulars: C. carrionii. The protocol:
The MFC was determined as the lowest drug concentration without fungal growth on Sabouraud agar after five days of incubation at 35 °C.

For data set [10], the system named is Fonsecaea pedrosoi (CFP 00791). The data set is described as follows: NIH Clinical Collection screening for antifungal activity (growth inhibition, OD 530 nm). It is filed as cell-based. The note with it: 10 µM; CFP00791 Fonsecaea pedrosoi isolate; 72–96 h; read-out: % Growth Inhibition. The method, then: These substances are part of the NIH Roadmap Molecular Libraries Screening Centers Network screening library, a collection of chemically diverse substances in Phase I-III clinical trials. Each substance was initially diluted to 1 mM in DMSO and stored at −20 °C until use. […] The final DMSO concentration corresponded to 0.5% v/v. The inoculum was prepared according to the protocol for filamentous fungi proposed by the European Committee on Antimicrobial Susceptibility Testing—EUCAST, with minor modifications. […] After growth, conidia were suspended in 3 mL of sterile distilled water with 0.1% Tween 20, vortexed, and the concentration adjusted to the 0.5 McFarland scale. The suspension was then diluted 1:10 in order to obtain a final working inoculum at 2–5 × 10^5 CFU/mL. Next, 100 µL of the inoculum was added to each well and the plates incubated at 35 °C for 72–96 h. Negative and positive controls consisted of culture medium alone and drug-free culture medium with the fungal inoculum previously described, respectively. Plates were read using a microplate reader (Epoch, Biotek, Wenusky, VT, USA) with a 530 nm filter to obtain the optical density. All plates were also visually read to confirm the equipment data. A calculation was performed to obtain the percentage of inhibition of fungal growth, according to the formula: (1 − (OD1/OD2)) × 100, where OD1 = optical density of the fungus in the presence of the drug; and OD2 = optical density of the growth control drug-free well.

The subject of data set [11] is Fonsecaea monophora (CFP 00911). Kind of data set: Minimum fungicidal concentration determination. In kind it is cell-based. Particulars: F. monophora. The protocol:
(§2) Minimum fungicidal concentration (MFC) was determined in triplicate by transferring a 5 μL aliquot from each well without fungal growth of the microdilution plates used for MIC determination, as described above, onto 2% glucose Sabouraud agar (Sigma Chemical Corporation). The MFC was determined as the lowest drug concentration without fungal growth on Sabouraud agar after five days of incubation at 35 °C. When the MFC/MIC ratio of a hit drug was 1 or 2, the substance was considered fungicidal against the pathogen. If this ratio was greater than 2, the hit drug was considered to be fungistatic.

The test system of data set [12] is Rhinocladiela similis (CFP 00790). Kind of data set: Minimum fungicidal concentration determination. The note with it: R. similis. In kind it is cell-based. The method, then: as §2
The subject of data set [13] is Fonsecaea pedrosoi (CFP 00791). The data set is described as follows: Minimum fungicidal concentration determination. The note with it: F. pedrosoi. In kind it is cell-based. The method, then:
as §2

In data set [14] the test system is Fonsecaea nubica (CFP 00912). Kind of data set: Minimum fungicidal concentration determination. Particulars: F. nubica. In kind it is cell-based. The method, then: as §2
The test system of data set [15] is Exophiala heteromorpha (ATCC 28180). The data set is described as follows: Minimum fungicidal concentration determination. In kind it is cell-based. Particulars: E. heteromorpha. The method, then:
as §2

The subject of data set [16] is Phialophora verrucosa (CFP 00937). The data set is described as follows: Minimum fungicidal concentration determination. In kind it is cell-based. The note with it: P. verrucosa. The protocol: as §2
Data set [17] has as its system Exophiala dermatitidis (ATCC 28869). The data set is described as follows: Minimum fungicidal concentration determination. In kind it is cell-based. Particulars: E. dermatitidis. The protocol:
as §2

In data set [18] the test system is Fonsecaea pedrosoi (CFP 00791). The note with it: F. pedrosoi; PDA; 7 days, 37 °C; albendazole at ½ MIC.
Method: (§3) At the end of the seven days of incubation at 37 °C, the plates were read visually. The aspect of the colonies supplemented with albendazole were compared to those of the positive melanin and inhibition melanin controls, to determine whether the color of the albendazole-supplemented cultures resembled the positive DHN-melanin or the melanin inhibition control. Pictures of the colonies were captured using a Canon EOS Rebel T7+ digital camera.
The test system of data set [19] is Exophiala heteromorpha (ATCC 28180). The note with it: E. heteromorpha; PDA; 7 days, 37 °C; albendazole at ½ MIC.
Method: as §3
The test system of data set [20] is Cladophialophora carrionii (CFP 00910). The note with it: C. carrionii; PDA; 7 days, 37 °C; albendazole at ½ MIC.
Method: as §3

As usually defined, the MIC is the lowest concentration that inhibits growth of the organism. What is called MFC is the smallest concentration meeting the test's criterion for killing the fungus. One may read the inhibition as the share of the control response that was lost under treatment. As to `COC(=O)Nc1nc2ccc(C(=O)c3ccccc3)cc2[nH]1` [Mebendazole], the “CC50 (translated from >100 μg/mL)” value in the data set on VERO cells (ATCC CCL-81) was roughly 338.98 µM. Moreover, the “Selectivity Index (SI)” value came to 135.59 in [1] (CC50 Vero 24 h / MIC); 67.79 in data set [2] (CC50 Vero 24 h / MIC); 67.79 in data set [3] (CC50 Vero 24 h / MIC); 67.79 in data set [4] (CC50 Vero 24 h / MIC); 67.79 in data set [5] (CC50 Vero 24 h / MIC); 67.79 in [6] (CC50 Vero 24 h / MIC). The “Selectivity Index (SI)” value in [7] (CC50 Vero 24 h / MIC) is 16.94; in [8] (CC50 Vero 24 h / MIC), 135.59. The MIC in data set [1] (Fonsecaea monophora, 100% growth inhibition, read-out: MIC) stood at 2.5 µM (≈ 0.738 µg/mL); in [2] (100% growth inhibition, read-out: MIC) it was 5 µM (≈ 1.48 µg/mL); in [3] (Fonsecaea pedrosoi, 100% growth inhibition, read-out: MIC), 5 µM (≈ 1.48 µg/mL); in data set [4] (Fonsecaea nubica, 100% growth inhibition, read-out: MIC) it was 5 µM (≈ 1.48 µg/mL); in data set [5] (Exophiala heteromorpha, ATCC28180, 100% growth inhibition, read-out: MIC), 5 µM (≈ 1.48 µg/mL); in data set [6] (Phialophora verrucosa, 100% growth inhibition, read-out: MIC), 5 µM (≈ 1.48 µg/mL). Also, the MIC in data set [7] (Exophiala dermatitidis, ATCC28869, 100% growth inhibition, read-out: MIC) is 20 µM (≈ 5.91 µg/mL); in [8] (Cladophialophora carrionii, 100% growth inhibition, read-out: MIC), 2.5 µM (≈ 0.738 µg/mL). Further, the “MFC:MIC Ratio” value in data set [9] is recorded as 1; in [11] it was 32; in [12], greater than 16; in data set [13], 1; in [14] it was greater than 16; in data set [15], greater than 16. Also, the results for the “MFC:MIC Ratio” value in data set [16] and in [17] were 2 and greater than 4, respectively. In addition, the “fungicidal or fungistatic (MFC/MIC ratio)” value in data set [9] is “fungicidal (When the MFC/MIC ratio of a hit drug was 1 or 2, the substance was considered fungicidal)”; in data set [13], “fungicidal (When the MFC/MIC ratio of a hit drug was 1 or 2, the substance was considered fungicidal)”; in data set [16], “fungicidal (When the MFC/MIC ratio of a hit drug was 1 or 2, the substance was considered fungicidal)”. The MFC was 2.5 µM (≈ 0.738 µg/mL) in data set [9] (Cladophialophora carrionii, read-out: MFC); 80 µM (≈ 23.6 µg/mL) in data set [11] (Fonsecaea monophora, read-out: MFC); greater than 80 µM in data set [12] (read-out: MFC); 5 µM (≈ 1.48 µg/mL) in data set [13] (Fonsecaea pedrosoi, read-out: MFC); greater than 80 µM in data set [14] (Fonsecaea nubica, read-out: MFC); greater than 80 µM in [15] (Exophiala heteromorpha, ATCC28180, read-out: MFC). For the same compound, the MFC in data set [16] (Phialophora verrucosa, read-out: MFC) was 10 µM (≈ 2.95 µg/mL); in [17] (Exophiala dermatitidis, ATCC28869, read-out: MFC), greater than 80 µM. In addition, the inhibition at 10 µM in [10] was 83%.

Consider `Cc1cccc2sc3nncn3c12` [tricyclazole], for which the melanin production entry in data set [18] was “changes the color of colonies from dark green, gray or black (due to melanin) to reddish brown”; in [19], “changes the color of colonies from dark green, gray or black (due to melanin) to reddish brown”; in data set [20], “changes the color of colonies from dark green, gray or black (due to melanin) to reddish brown”.
